Experimental findings from patent US10669268B2, “Bicyclic derivatives” (Hoffmann-La Roche Inc., priority 2012, dated 2020) are described below.

The target of this assay is ATX (human His-tagged) (Homo sapiens (Human), UniProt Q13822). The assay can be described thus: Human ATX enzyme inhibition assay (fluorescence quenching, MR121 substrate). The assay is classed as biochemical. To be noted: 30 nM ATX, 1 μM MR121 substrate, 30° C., pH 8.0. The method in brief: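 Fluorescence-quenching assay using MR121 substrate at 1 μM final, incubated 15 min at 30 °C. Buffer was 50 mM Tris-HCl pH 8.0 with 140 mM NaCl, 5 mM KCl, 1 mM CaCl2, 1 mM MgCl2 and 0.01% Triton X-100.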
Usually IC50 stands for the concentration that gives 50% inhibition. Low readings indicate greater potency in that assay, high ones weaker potency in that assay. Turning to `O=C(c1cnc(OCC(F)(F)F)c(C(F)(F)F)c1)N1C[C@@H]2CN(C(=O)c3ccc4[nH]nnc4c3)C[C@H]2C1` [Example 19.43, ((3aS,6aS)-5-(1H-benzo[d][1,2,3]triazole-5-carbonyl)hexahydropyrrolo[3,4-c]pyrrol-2(1H)-yl)(6-(2,2,2-trifluoroethoxy)-5-(trifluoromethyl)pyridin-3-yl)methanone], half-maximal inhibition (IC50) was put at 14 nM.

For `O=C(c1ccc2[nH]nnc2c1)N1C[C@H]2CN(C(=O)N3CCC(c4ccc(Cl)cc4)CC3)C[C@@H]2C1` [Example 20, (1H-Benzotriazol-5-yl)-{(3aS,6aS)-5-[4-(4-chloro-phenyl)-piperidine-1-carbonyl]-hexahydro-pyrrolo[3,4-c]pyrrol-2-yl}-methanone], inhibition was half-maximal at 29 nM (IC50).

Molecule `O=C(c1ccc2[nH]nnc2c1)N1C[C@H]2CN(C(=O)N3CCN(c4ccc(Cl)cc4)CC3)C[C@@H]2C1` [Example 20.01, (1H-benzotriazol-5-yl)-{(3aS,6aS)-5-[4-(4-chloro-phenyl)-piperazine-1-carbonyl]-hexahydro-pyrrolo[3,4-c]pyrrol-2-yl}-methanone] yielded an IC50 of 305 nM.
